Experimental data: article PMC10093686, “Structural insights into acetylated histone ligand recognition by the BDP1 bromodomain of Plasmodium falciparum” (International journal of biological macromolecules, 2022)
Entries after “also recorded” stand apart in the source; their conditions may differ.

Biological target: PfBDP1-BRD (P. falciparum Bromodomain Protein 1 bromodomain)
Assay: ITC binding assay of PfBDP1-BRD with histone peptides
Parameters: species or system Plasmodium falciparum
Conditions: 5°C, 20 mM sodium phosphate pH 7.5, 150 mM NaCl, 1 mM TCEP, protein (303–488 or 333–456) 100–200 μM in cell, peptide 2.5–5.0 mM in syringe, 1:1 binding model, mean ± SD of three runs, non-binding ligands in duplicate
Procedure: Isothermal titration calorimetry (ITC) experiments were carried out using a MicroCal PEAQ-ITC and a MicroCal iTC200 (Malvern Panalytical). The purified PfBDP1-BRD proteins (containing residues 303–488 or 333–456) were dialyzed for 48 h at 4°C into ITC buffer containing 20 mM sodium phosphate buffer pH 7.5, 150 mM NaCl, and 1 mM TCEP. The dialyzed PfBDP1-BRD (303–488 or 333–456) proteins were added to the sample cell at concentrations of 100–200 μM, and between 2.5 and 5.0 mM of each histone peptide in the ITC dialysis buffer was placed in the injection syringe. A total of 20 injections were carried out, with the parameters set as follows. […] The remaining 19 injections were completed with an injection volume of 2 μL, a reaction time of 4 s, and a 150 s spacing time between each injection. All ITC runs were carried out at 5°C with a differential power (DP) value of 10, the feedback set to high, at a stirring speed of 750 RPM, and with an initial delay for the reaction set to 60 s.
The ITC data obtained were analyzed using the MicroCal PEAQ-ITC 200 analysis software provided with the instrument (Malvern Panalytical). The heat of dilutions for the buffer and peptide ligands were obtained from titrating buffer into buffer, buffer into PfBDP1-BRD protein (303–488 and 333–456), and histone peptide into buffer. The heats of dilution for the histone peptides were subtracted from the raw isotherms obtained from the histone peptide and PfBDP1-BRD (303–488 and 333–456) protein titrations. The first injection was discarded from the data analysis, and the data was integrated using a 1:1 binding model assuming a single set of identical binding sites. A Marquandt nonlinear least-squares analysis was used to calculate the binding affinities and N values from the normalized heat changes. Binding experiments were repeated in triplicate for each ligand and the mean KD was calculated from the average of the three runs, with the standard deviation coming from the mean.

Substance | PfBDP1-BRD KD
MEVPGVIGGKVGGKVGG(Kac)VLGLG [H2A.ZK19ac, histone H2A.Z peptide mono-acetylated at K19] | No Binding
SGKGPAQKSQAAKKTAGKTLGPR [H2B.Z unmodified, unmodified P. falciparum histone variant H2B.Z peptide] | No Binding
SGRGKGG(Kac)GLGKGGAKRHRKVLRD [H4K8ac, histone H4 peptide (1–24) mono-acetylated at K8] | No Binding
SGKGPAQKSQAA(Kac)KTAGKTLGPR [H2B.ZK13ac, histone H2B.Z peptide mono-acetylated at K13] | No Binding
SGKGPAQ(Kac)SQAAKKTAGKTLGPR [H2B.ZK8ac, histone H2B.Z peptide mono-acetylated at K8] | No Binding
MEVPGVIGG(Kac)VGGKVGGKVLGLG [H2A.ZK11ac, histone H2A.Z peptide mono-acetylated at K11] | No Binding
SGKGPAQKSQAAKKTAG(Kac)TLGPR [H2B.ZK18ac, histone H2B.Z peptide mono-acetylated at K18] | No Binding
SG(Kac)GPAQKSQAAKKTAGKTLGPR [H2B.ZK3ac, histone H2B.Z peptide mono-acetylated at K3] | No Binding
SGKGPAQKSQAAK(Kac)TAGKTLGPR [H2B.ZK14ac, histone H2B.Z peptide mono-acetylated at K14] | No Binding
ARTKQTAR(Kac)STGGKAPRKQLATKA [H3K9ac, histone H3 peptide (1–24) mono-acetylated at lysine 9] | did not observe any interaction; also recorded: No Binding
MEVPGVIGGKVGG(Kac)VGGKVLGLG [H2A.ZK15ac, histone H2A.Z peptide mono-acetylated at K15] | No Binding
MEVPGVIGGKVGGKVGGKVLGLG [H2A.Z unmodified, unmodified P. falciparum histone variant H2A.Z peptide] | No Binding

System: PfBDP1-BRD (303–488)
Assay: NMR chemical shift perturbation (2D 15N-1H HSQC) titration with histone peptides
Type: binding, Plasmodium falciparum
Conditions: 0.3–0.5 mM 15N-labeled PfBDP1-BRD (303–488); 20 mM Tris-HCl pH 6.8, 150 mM NaCl, 10 mM DTT, 10% D2O; molar ratios 1:0, 1:0.5, 1:1, 1:2.5, 1:5; 25°C; result in words
Procedure: Chemical shift perturbation experiments were performed using 0.3–0.5 mM of uniformly ^15N-labeled PfBDP1-BRD (303–488) in NMR buffer containing 20 mM Tris-HCl pH 6.8, 150 mM NaCl, 10 mM DTT and 10% D2O. […] Two-dimensional ^15N−^1H HSQC (heteronuclear single quantum coherence) experiments for all samples were acquired on Bruker Avance III spectrometer equipped with a cryogenic 1.7 mm probe. The temperature of the samples was regulated at 25°C throughout data collection. All spectra were processed using TopSpin (Bruker) as described previously and analyzed using NMRFAM-SPARKY [48].

Substance | Chemical shift perturbations (CSPs) of PfBDP1-BRD backbone amide peaks upon addition of peptide
MEVPGVIGG(Kac)VGGKVGGKVLGLG [H2A.ZK11ac, histone H2A.Z peptide mono-acetylated at K11] | absence of CSPs
ARTKQTAR(Kac)STGGKAPRKQLATKA [H3K9ac, histone H3 peptide (1–24) mono-acetylated at lysine 9] | did not observe any CSPs
